Data: patent publication US12595266B2, “Pesticidally active heterocyclic derivatives with sulfur containing substituents” (SYNGENTA CROP PROTECTION AG, priority 2020, dated 2026)

How the values were obtained:
Type in all cases: in vivo
[1] = test system: Euschistus heros (Neotropical Brown Stink Bug); experiment: Activity against Euschistus heros (neotropical brown stink bug); conditions: 120 h, application rate of 200 ppm, soybean leaves sprayed, N2 nymphs, 5 days after infestation, read-out: effect in at least one of the two categories (mortality or growth inhibition)
Description: Example B4: Activity Against Euschistus heros (Neotropical Brown Stink Bug)
Soybean leaves on agar in 24-well microtiter plates were sprayed with aqueous test solutions prepared from 10′000 ppm DMSO stock solutions. After drying the leaves were infested with N2 nymphs. The samples were assessed for mortality and growth inhibition in comparison to untreated samples 5 days after infestation.

[2] = test system: Plutella xylostella (Diamond Back Moth); experiment: Activity against Plutella xylostella (diamond back moth); conditions: 192 h, application rate of 200 ppm, artificial diet, Plutella eggs, 8 days after infestation, read-out: effect in at least one of the two categories (mortality or growth inhibition)
Description: Example B7: Activity Against Plutella xylostella (Diamond Back Moth)
24-well microtiter plates with artificial diet were treated with aqueous test solutions prepared from 10′000 ppm DMSO stock solutions by pipetting. After drying, Plutella eggs were pipetted through a plastic stencil onto a gel blotting paper and the plate was closed with it. The samples were assessed for mortality and growth inhibition in comparison to untreated samples 8 days after infestation.

[3] = test system: Chilo suppressalis (Striped Rice Stemborer); experiment: Activity against Chilo suppressalis (striped rice stemborer); conditions: 144 h, application rate of 200 ppm, artificial diet, L2 larvae, 6 days after infestation, read-out: control (at least one of mortality, anti-feedant effect, growth inhibition)
Description: Example B2: Activity Against Chilo suppressalis (Striped Rice Stemborer)
24-well microtiter plates with artificial diet were treated with aqueous test solutions prepared from 10′000 ppm DMSO stock solutions by pipetting. After drying, the plates were infested with L2 larvae (6-8 per well). The samples were assessed for mortality, anti-feeding effect, and growth inhibition in comparison to untreated samples 6 days after infestation. Control of Chilo suppressalis by a test sample is given when at least one of the categories mortality, anti-feedant effect, and growth inhibition is higher than the untreated sample.

[4] = test system: Myzus persicae (Green Peach Aphid); experiment: Activity against Myzus persicae (green peach aphid), feeding/contact activity; conditions: foliar, 144 h, application rate of 200 ppm, sunflower leaf discs sprayed, aphid population of mixed ages, 6 days after infestation
Description: Example B6: Activity Against Myzus persicae (Green Peach Aphid) Feeding/Contact Activity
Sunflower leaf discs were placed onto agar in a 24-well microtiter plate and sprayed with aqueous test solutions prepared from 10′000 ppm DMSO stock solutions. After drying, the leaf discs were infested with an aphid population of mixed ages. The samples were assessed for mortality 6 days after infestation.

[5] = test system: Diabrotica balteata (Corn Root Worm); experiment: Activity against Diabrotica balteata (corn root worm); conditions: 96 h, application rate of 200 ppm, maize sprouts sprayed, L2 larvae, 4 days after infestation, read-out: effect in at least one of the two categories (mortality or growth inhibition)
Description: Example B3: Activity Against Diabrotica balteata (Corn Root Worm)
Maize sprouts placed onto an agar layer in 24-well microtiter plates were treated with aqueous test solutions prepared from 10′000 ppm DMSO stock solutions by spraying. After drying, the plates were infested with L2 larvae (6 to 10 per well). The samples were assessed for mortality and growth inhibition in comparison to untreated samples 4 days after infestation.

[6] = test system: Myzus persicae (Green Peach Aphid); experiment: Activity against Myzus persicae (green peach aphid), systemic activity; conditions: 144 h, test rate of 24 ppm, roots of infested pea seedlings in test solution (systemic), 6 days
Description: Example B9: Activity Against Myzus persicae (Green Peach Aphid) Systemic Activity
Roots of pea seedlings infested with an aphid population of mixed ages were placed directly into aqueous test solutions prepared from 10′000 DMSO stock solutions. The samples were assessed for mortality 6 days after placing seedlings into test solutions.

[7] = test system: Spodoptera littoralis (Egyptian Cotton Leaf Worm); experiment: Activity against Spodoptera littoralis (Egyptian cotton leaf worm); conditions: foliar, 72 h, application rate of 200 ppm, cotton leaf discs sprayed, L1 larvae, 3 days after infestation, read-out: control (at least one of mortality, anti-feedant effect, growth inhibition)
Description: Example B8: Activity Against Spodoptera littoralis (Egyptian Cotton Leaf Worm)
Cotton leaf discs were placed onto agar in 24-well microtiter plates and sprayed with aqueous test solutions prepared from 10′000 ppm DMSO stock solutions. After drying the leaf discs were infested with five L1 larvae. The samples were assessed for mortality, anti-feeding effect, and growth inhibition in comparison to untreated samples 3 days after infestation. Control of Spodoptera littoralis by a test sample is given when at least one of the categories mortality, anti-feedant effect, and growth inhibition is higher than the untreated sample.

CCS(=O)(=O)c1c(N2Cc3cc4c(cc3C2=O)OC(F)(F)O4)nc(-c2cnn(CC(F)F)c2)n1C [Compound P4, 6-[2-[1-(2,2-difluoroethyl)pyrazol-4-yl]-5-ethylsulfonyl-1-methyl-imidazol-4-yl]-2,2-difluoro-5H-[1,3]dioxolo[4,5-f]isoindol-7-one]
≥ 80%: percent effect (mortality or growth inhibition) at 200 ppm [1] | percent effect (mortality or growth inhibition) at 200 ppm [2] | percent control (mortality, anti-feedant effect or growth inhibition) at 200 ppm [3] | mortality at 200 ppm [4] | percent effect (mortality or growth inhibition) at 200 ppm [5] | mortality at 24 ppm [6]

CCS(=O)(=O)c1c(N2Cc3cc4c(cc3C2=O)OC(F)(F)O4)nc(-c2cnn(CC3(C#N)CC3)c2)n1C [Compound P5, 1-[[4-[4-(2,2-difluoro-7-oxo-5H-[1,3]dioxolo[4,5-f]isoindol-6-yl)-5-ethylsulfonyl-1-methyl-imidazol-2-yl]pyrazol-1-yl]methyl]cyclopropanecarbonitrile]
≥ 80%: percent effect (mortality or growth inhibition) at 200 ppm [2] | mortality at 200 ppm [4] | mortality at 24 ppm [6]

CCS(=O)(=O)c1c(N2Cc3cc4c(cc3C2=O)OC(F)(F)O4)nc(OCC(F)(F)F)n1C [Compound P6, 6-[5-ethylsulfonyl-1-methyl-2-(2,2,2-trifluoroethoxy)imidazol-4-yl]-2,2-difluoro-5H-[1,3]dioxolo[4,5-f]isoindol-7-one]
≥ 80%: percent control (mortality, anti-feedant effect or growth inhibition) at 200 ppm [7] | percent effect (mortality or growth inhibition) at 200 ppm [2] | percent control (mortality, anti-feedant effect or growth inhibition) at 200 ppm [3] | percent effect (mortality or growth inhibition) at 200 ppm [5]

CCS(=O)(=O)c1c(N2Cc3cc4c(cc3C2=O)OC(F)(F)O4)nc(-c2cncnc2)n1C [Compound P7, 6-(5-ethylsulfonyl-1-methyl-2-pyrimidin-5-yl-imidazol-4-yl)-2,2-difluoro-5H-[1,3]dioxolo[4,5-f]isoindol-7-one]
≥ 80%: percent effect (mortality or growth inhibition) at 200 ppm [2] | mortality at 24 ppm [6]

CCS(=O)(=O)c1cc(OCC(F)(F)F)cnc1N1Cc2cc3c(cc2C1=O)OC(F)(F)O3 [Compound P8, 6-[3-ethylsulfonyl-5-(2,2,2-trifluoroethoxy)-2-pyridyl]-2,2-difluoro-5H-[1,3]dioxolo[4,5-f]isoindol-7-one]
≥ 80%: percent control (mortality, anti-feedant effect or growth inhibition) at 200 ppm [7] | percent effect (mortality or growth inhibition) at 200 ppm [2] | percent control (mortality, anti-feedant effect or growth inhibition) at 200 ppm [3] | percent effect (mortality or growth inhibition) at 200 ppm [5]

CCS(=O)(=O)c1ccc(C2CC2)nc1N1Cc2cc3c(cc2C1=O)OC(F)(F)O3 [Compound P10, 6-(6-cyclopropyl-3-ethylsulfonyl-2-pyridyl)-2,2-difluoro-5H-[1,3]dioxolo[4,5-f]isoindol-7-one]
≥ 80%: percent effect (mortality or growth inhibition) at 200 ppm [1] | percent control (mortality, anti-feedant effect or growth inhibition) at 200 ppm [7] | percent effect (mortality or growth inhibition) at 200 ppm [2] | percent control (mortality, anti-feedant effect or growth inhibition) at 200 ppm [3]

CCS(=O)(=O)c1ccc(-n2cncn2)nc1N1Cc2cc3c(cc2C1=O)OC(F)(F)O3 [Compound P11, 6-[3-ethylsulfonyl-6-(1,2,4-triazol-1-yl)-2-pyridyl]-2,2-difluoro-5H-[1,3]dioxolo[4,5-f]isoindol-7-one]
≥ 80%: percent control (mortality, anti-feedant effect or growth inhibition) at 200 ppm [7] | percent effect (mortality or growth inhibition) at 200 ppm [2] | percent control (mortality, anti-feedant effect or growth inhibition) at 200 ppm [3] | percent effect (mortality or growth inhibition) at 200 ppm [5]

CCS(=O)(=O)c1cc(OCC(C)(F)F)cnc1N1Cc2cc3c(cc2C1=O)OC(F)(F)O3 [Compound P12, 6-[5-(2,2-difluoropropoxy)-3-ethylsulfonyl-2-pyridyl]-2,2-difluoro-5H-[1,3]dioxolo[4,5-f]isoindol-7-one]
≥ 80%: percent effect (mortality or growth inhibition) at 200 ppm [1] | percent control (mortality, anti-feedant effect or growth inhibition) at 200 ppm [7] | percent effect (mortality or growth inhibition) at 200 ppm [2] | percent control (mortality, anti-feedant effect or growth inhibition) at 200 ppm [3] | mortality at 200 ppm [4] | percent effect (mortality or growth inhibition) at 200 ppm [5]

CCS(=O)(=O)c1cc(C(F)(F)F)cnc1N1Cc2cc3c(cc2C1=O)OC(F)(F)O3 [Compound P13, 6-[3-ethylsulfonyl-5-(trifluoromethyl)-2-pyridyl]-2,2-difluoro-5H-[1,3]dioxolo[4,5-f]isoindol-7-one]
≥ 80%: percent control (mortality, anti-feedant effect or growth inhibition) at 200 ppm [7] | percent effect (mortality or growth inhibition) at 200 ppm [2] | percent control (mortality, anti-feedant effect or growth inhibition) at 200 ppm [3]

CCS(=O)(=O)c1c(N2Cc3cc4c(cc3C2=O)OC(F)(F)O4)nc(-c2cnn(C3CC3)c2)n1C [Compound P17, 6-[2-(1-cyclopropylpyrazol-4-yl)-5-ethylsulfonyl-1-methyl-imidazol-4-yl]-2,2-difluoro-5H-[1,3]dioxolo[4,5-f]isoindol-7-one]
≥ 80%: percent effect (mortality or growth inhibition) at 200 ppm [1] | percent control (mortality, anti-feedant effect or growth inhibition) at 200 ppm [7] | percent effect (mortality or growth inhibition) at 200 ppm [2] | percent control (mortality, anti-feedant effect or growth inhibition) at 200 ppm [3] | mortality at 200 ppm [4] | percent effect (mortality or growth inhibition) at 200 ppm [5]

CCS(=O)(=O)c1cc(N(C)C(C)=O)cnc1N1Cc2cc3c(cc2C1=O)OC(F)(F)O3 [Compound P18, N-[6-(2,2-difluoro-7-oxo-5H-[1,3]dioxolo[4,5-f]isoindol-6-yl)-5-ethylsulfonyl-3-pyridyl]-N-methyl-acetamide]
≥ 80%: percent effect (mortality or growth inhibition) at 200 ppm [1] | percent effect (mortality or growth inhibition) at 200 ppm [2] | mortality at 200 ppm [4]

CCS(=O)(=O)c1cc(C2CC2)cnc1N1Cc2cc3c(cc2C1=O)OC(F)(F)O3 [Compound P19, 6-(5-cyclopropyl-3-ethylsulfonyl-2-pyridyl)-2,2-difluoro-5H-[1,3]dioxolo[4,5-f]isoindol-7-one]
≥ 80%: percent control (mortality, anti-feedant effect or growth inhibition) at 200 ppm [7] | percent effect (mortality or growth inhibition) at 200 ppm [2] | percent control (mortality, anti-feedant effect or growth inhibition) at 200 ppm [3] | mortality at 200 ppm [4] | percent effect (mortality or growth inhibition) at 200 ppm [5]

CCS(=O)(=O)c1c(N2Cc3cc4c(cc3C2=O)OC(F)(F)O4)nc(-n2ccc(Cl)n2)n1C [Compound P21, 6-[2-(3-chloropyrazol-1-yl)-5-ethylsulfonyl-1-methyl-imidazol-4-yl]-2,2-difluoro-5H-[1,3]dioxolo[4,5-f]isoindol-7-one]
≥ 80%: percent effect (mortality or growth inhibition) at 200 ppm [1] | percent control (mortality, anti-feedant effect or growth inhibition) at 200 ppm [7] | percent effect (mortality or growth inhibition) at 200 ppm [2] | mortality at 200 ppm [4] | percent effect (mortality or growth inhibition) at 200 ppm [5]

CCS(=O)(=O)c1c(N2Cc3cc4c(cc3C2=O)OC(F)(F)O4)nc(-c2cc(C3CC3)no2)n1C [Compound P26, 6-[2-(3-cyclopropylisoxazol-5-yl)-5-ethylsulfonyl-1-methyl-imidazol-4-yl]-2,2-difluoro-5H-[1,3]dioxolo[4,5-f]isoindol-7-one]
≥ 80%: percent control (mortality, anti-feedant effect or growth inhibition) at 200 ppm [7] | percent effect (mortality or growth inhibition) at 200 ppm [2] | percent control (mortality, anti-feedant effect or growth inhibition) at 200 ppm [3] | mortality at 200 ppm [4] | percent effect (mortality or growth inhibition) at 200 ppm [5]
